Data reported in patent publication US12509424B2, “Compound and composition as PDGF receptor kinase inhibitor” (NIPPON SHINYAKU CO., LTD., priority 2019, dated 2025).

Tests used:
[1] = molecular target: PDGFR-β (Homo sapiens (Human), UniProt P09619); experiment: PDGFR-β tyrosine kinase inhibitory action (HTRF KinEASE-TK); type: biochemical; details: PDGFR-β enzyme 1 ng/μL, 30° C. for 30 minutes; read-out: PDGF-β IC50
Experimental: (§1) 1. Preparation of Test Substance
This DMSO solution was diluted by 8 times with an assay buffer 1 (50 mM HEPES (pH 7.0), 0.02% NaN3, 0.01% Bovine Serum Albumin, 0.1 mM orthovanadate, 1 mM Dithiothreitol, 5 mM MgCl2, and 1 mM MnCl2) and further diluted by 5 times with an assay buffer 2 (50 mM HEPES (pH 7.0), 0.02% NaN3, 0.01% Bovine Serum Albumin, 0.1 mM orthovanadate, 1 mM Dithiothreitol, 5 mM MgCl2, 1 mM MnCl2, and 40 nM Supplemented Enzymatic Buffer (cisbio)).
2. Measurement of PDGFR-β Tyrosine Kinase Inhibitory Action
For the measurement, the HTRF KinEASE-TK kit from Cisbio Bioassays SAS was used. To a 384 well plate, the test substance solution was added at 4 μL each, then 2 μL of a PDGFR-β enzyme solution (final concentration of 1 ng/μL, Carna Biosciences, Inc.) and 4 μL of a substrate solution obtained by adding 0.6 μM ATP to TK substrate-3-biotin (cisbio) were added, and the solution was allowed to react at 30° C. for 30 minutes at a final concentration of the test substance being 0.01 to 10,000 nM.
Thereafter, 10 μL of a detection solution (cisbio) was added to each well and allowed to react at 30° C. for 1 hour. The fluorescence intensity was measured with a microplate reader (Spectra Max M5, Molecular device).
(§2) 3. Analysis of Measurement Results

[2] = test system: pulmonary arterial smooth muscle cells; experiment: Suppression of proliferation of pulmonary arterial smooth muscle cells (PDGF-BB stimulation, BrdU); type: cell-based; details: PASMC, 24 h; healthy human derived pulmonary arterial smooth muscle cells; human PDGF-BB 10 ng/mL stimulation; BrdU uptake after 1 day; test substance final concentration 3 to 10,000 nM; read-out: Human normal PASMC proliferation suppression (PDGF stimulation_IC50)
Experimental: as §1
Furthermore, it was diluted by 50 times with distilled water.
2. Measurement of Suppression Action Against Proliferation of Pulmonary Arterial Smooth Muscle Cells
The day after healthy human derived pulmonary arterial smooth muscle cells were seeded onto a 96 well plate using a smooth muscle cell proliferation medium, the proliferation medium was replaced with a 0.1% FBS medium, and the cells were cultured for an additional day. A test substance solution was diluted by 10 times with a medium containing BrdU and human PDGF-BB (final concentration of 10 ng/mL, Sigma-Aldrich) and added to cells in equal amounts so as to reach a final concentration of 3 to 10,000 nM. Also, to the human PDGF-BB negative control, BrdU and 0.1% DMSO solution were added. After culturing for 1 day, the amount of BrdU taken up by the proliferating cells was measured using an anti-BrdU antibody.
as §2

PDGFR-β, sequence (P09619 33-1106): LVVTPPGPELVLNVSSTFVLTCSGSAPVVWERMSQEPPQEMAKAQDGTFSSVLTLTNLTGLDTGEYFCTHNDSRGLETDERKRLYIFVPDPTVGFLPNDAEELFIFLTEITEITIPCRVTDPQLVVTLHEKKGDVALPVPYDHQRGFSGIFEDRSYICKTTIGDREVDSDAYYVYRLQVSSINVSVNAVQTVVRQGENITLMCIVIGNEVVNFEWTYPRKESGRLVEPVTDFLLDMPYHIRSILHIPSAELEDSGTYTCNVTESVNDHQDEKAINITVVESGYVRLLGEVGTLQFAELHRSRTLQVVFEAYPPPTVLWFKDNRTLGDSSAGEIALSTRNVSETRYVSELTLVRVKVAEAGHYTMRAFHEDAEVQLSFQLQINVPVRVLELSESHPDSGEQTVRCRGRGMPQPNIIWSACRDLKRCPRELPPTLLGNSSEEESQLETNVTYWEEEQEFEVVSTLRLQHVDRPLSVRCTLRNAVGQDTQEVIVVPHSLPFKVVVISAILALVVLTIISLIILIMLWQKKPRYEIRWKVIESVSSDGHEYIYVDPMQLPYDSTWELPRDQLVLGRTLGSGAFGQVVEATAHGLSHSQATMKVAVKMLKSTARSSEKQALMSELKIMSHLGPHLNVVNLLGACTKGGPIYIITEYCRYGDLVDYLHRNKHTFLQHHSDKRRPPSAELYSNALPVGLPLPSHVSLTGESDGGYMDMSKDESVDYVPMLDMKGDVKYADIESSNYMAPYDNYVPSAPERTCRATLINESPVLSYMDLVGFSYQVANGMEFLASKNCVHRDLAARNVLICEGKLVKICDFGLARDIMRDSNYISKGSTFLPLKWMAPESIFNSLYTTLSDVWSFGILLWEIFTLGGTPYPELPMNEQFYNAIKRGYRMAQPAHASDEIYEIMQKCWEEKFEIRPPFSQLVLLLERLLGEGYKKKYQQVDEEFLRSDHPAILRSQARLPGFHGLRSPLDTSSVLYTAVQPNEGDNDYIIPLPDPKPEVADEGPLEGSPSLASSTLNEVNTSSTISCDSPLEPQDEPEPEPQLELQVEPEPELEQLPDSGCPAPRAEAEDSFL

Row | SMILES | IC50 [1] [nM] | IC50 [2] [nM]
1 | Cc1ccc(C(=O)N[C@H]2CCCC[C@@H]2O)cc1NCc1cnc(N)cn1 [Example 131, 3-{[(5-aminopyrazin-2-yl)methyl]amino}-N-[(1S,2S)-2-hydroxycyclohexyl]-4-methylbenzamide] | 490 | 340
2 | Cc1ccc(C(=O)N[C@H]2CCCC[C@@H]2O)cc1NCc1ccc(-n2ccnn2)nc1 [Example 140, N-[(1S,2S)-2-hydroxycyclohexyl]-4-methyl-3-({[6-(1H-1,2,3-triazol-1-yl)pyridin-3-yl]methyl}amino)benzamide] | 330 | 43
3 | Cc1ccc(C(=O)N[C@H]2CCCC[C@@H]2O)cc1NCc1ccc(NC(=O)C2CC2)nc1 [Example 120, 3-[({6-[(cyclopropanecarbonyl)amino]pyridin-3-yl}methyl)amino]-N-[(1S,2S)-2-hydroxycyclohexyl]-4-methylbenzamide] | 20 | 34
4 | Cc1ccc(C(=O)N[C@H]2CCCC[C@@H]2O)cc1NCc1ccc(NC(=O)Nc2cccnc2)nc1 [Example 129, N-[(1S,2S)-2-hydroxycyclohexyl]-4-methyl-3-{[(6-{[(pyridin-3-yl)carbamoyl]amino}pyridin-3-yl)methyl]amino}benzamide] | 17 | 20
5 | Cc1ccc(C(=O)N[C@H]2CCCC[C@@H]2O)cc1NCc1ccc(NC2CCOCC2)nc1 [Example 125, N-[(1S,2S)-2-hydroxycyclohexyl]-4-methyl-3-[({6-[(oxan-4-yl)amino]pyridin-3-yl}methyl)amino]benzamide] | 130 | 30
6 | O=C(N[C@H]1CCCC[C@@H]1O)c1ccc(F)c(/C=C(\F)c2cncc(-c3ccccn3)c2)c1 [Example 177, 3-[(Z)-2-([2,3′-bipyridin]-5′-yl)-2-fluoroethenyl]-4-fluoro-N-[(1S,2S)-2-hydroxycyclohexyl]benzamide] | 15 | 11
7 | Cc1ncc(C(=O)N[C@H]2CCCC[C@@H]2O)cc1/C=C(\F)c1ccc(NCC2CC2)nc1 [Example 199, 5-[(Z)-2-{6-[(cyclopropylmethyl)amino]pyridin-3-yl}-2-fluoroethenyl]-N-[(1S,2S)-2-hydroxycyclohexyl]-6-methylpyridine-3-carboxamide] | 52 | 70
8 | Cc1ccc(C(=O)N[C@H]2CCCC[C@@H]2O)cc1/C=C(\F)c1cncc(NCCN(C)C)c1 [Example 198, 3-[(Z)-2-(5-{[2-(dimethylamino)ethyl]amino}pyridin-3-yl)-2-fluoroethenyl]-N-[(1S,2S)-2-hydroxycyclohexyl]-4-methylbenzamide] | 7.2 | 39
9 | Cc1ccc(C(=O)N[C@H]2CCCC[C@@H]2O)cc1NCc1ccc(-n2cccn2)nc1 [Example 122, N-[(1S,2S)-2-hydroxycyclohexyl]-4-methyl-3-({[6-(1H-pyrazol-1-yl)pyridin-3-yl]methyl}amino)benzamide] | 150 | 300
10 | Cc1ncc(C(=O)N[C@H]2CCCC[C@@H]2O)cc1/C=C(\F)c1cncc(NC2COC2)c1 [Example 195, 5-[(Z)-2-fluoro-2-{5-[(oxetan-3-yl)amino]pyridin-3-yl}ethenyl]-N-[(1S,2S)-2-hydroxycyclohexyl]-6-methylpyridine-3-carboxamide] | 19 | 26
11 | O=C(N[C@H]1CCCC[C@@H]1O)c1ccc(F)c(/C=C(\F)c2cncc(N3CCOCC3)c2)c1 [Example 184, 4-fluoro-3-{(Z)-2-fluoro-2-[5-(morpholin-4-yl)pyridin-3-yl]ethenyl}-N-[(1S,2S)-2-hydroxycyclohexyl]benzamide] | 51 | 82
12 | COC(=O)Nc1ccc(CNc2cc(C(=O)N[C@H]3CCCC[C@@H]3O)ccc2C)cn1 [Example 124, methyl {5-[(5-{[(1S,2S)-2-hydroxycyclohexyl]carbamoyl}-2-methylanilino)methyl]pyridin-2-yl}carbamate] | 22 | 25
13 | Cc1ccc(C(=O)N[C@H]2CCCC[C@@H]2O)cc1NCc1cnc2[nH]ncc2c1 [Example 109, N-[(1S,2S)-2-hydroxycyclohexyl]-4-methyl-3-{[(1H-pyrazolo[3,4-b]pyridin-5-yl)methyl]amino}benzamide] | 46 | 170
14 | Cc1ccc(C(=O)N[C@H]2CCCC[C@@H]2O)cc1NCc1ccc(NC(=O)N2CCOCC2)nc1 [Example 127, N-{5-[(5-{[(1S,2S)-2-hydroxycyclohexyl]carbamoyl}-2-methylanilino)methyl]pyridin-2-yl}morpholine-4-carboxamide] | 63 | 45
15 | O=C(N[C@H]1CCCC[C@@H]1O)c1ccc(Cl)c(COc2cncc(-c3ncccn3)c2)c1 [Example 170, 4-chloro-N-[(1S,2S)-2-hydroxycyclohexyl]-3-({[5-(pyrimidin-2-yl)pyridin-3-yl]oxy}methyl)benzamide] | 200 | 130
16 | Cc1ccc(C(=O)N[C@H]2CCCC[C@@H]2O)cc1NC(=O)c1cncc(OCC2(C)CC2)c1 [Example 53, N-(5-{[(1S,2S)-2-hydroxycyclohexyl]carbamoyl}-2-methylphenyl)-5-[(1-methylcyclopropyl)methoxy]pyridine-3-carboxamide] | 12 | 71
17 | Cc1ccc(C(=O)N[C@H]2CCCC[C@@H]2O)cc1NCc1ccc(NC(C)C)nc1 [Example 134, N-[(1S,2S)-2-hydroxycyclohexyl]-4-methyl-3-[({6-[(propan-2-yl)amino]pyridin-3-yl}methyl)amino]benzamide] | 170 | 60
18 | Cc1c(F)cc(C(=O)N[C@H]2CCCC[C@@H]2O)cc1NCc1cnc(N)nc1 [Example 143, 3-{[(2-aminopyrimidin-5-yl)methyl]amino}-5-fluoro-N-[(1S,2S)-2-hydroxycyclohexyl]-4-methylbenzamide] | 97 | 90
19 | O=C(N[C@H]1CCCC[C@@H]1O)c1ccc(Cl)c(NC(=O)c2cnc(CC3CC3)s2)c1 [Example 55, N-(2-chloro-5-{[(1S,2S)-2-hydroxycyclohexyl]carbamoyl}phenyl)-2-(cyclopropylmethyl)-1,3-thiazole-5-carboxamide] | 83 | 69
20 | Cc1ccc(C(=O)N[C@H]2CCCC[C@@H]2O)cc1NCc1cncc(-c2cn3ccnc3cn2)c1 [Example 111, N-[(1S,2S)-2-hydroxycyclohexyl]-3-({[5-(imidazo[1,2-a]pyrazin-6-yl)pyridin-3-yl]methyl}amino)-4-methylbenzamide] | 150 | 380
21 | Nc1ncc(CNc2cc(C(=O)N[C@H]3CCCC[C@@H]3O)ccc2Cl)cn1 [Example 142, 3-{[(2-aminopyrimidin-5-yl)methyl]amino}-4-chloro-N-[(1S,2S)-2-hydroxycyclohexyl]benzamide] | 210 | 130
22 | CNc1ncc2c(Nc3cc(C(=O)N[C@H]4CCCC[C@@H]4O)ccc3C)cccc2n1 [Example 82, N-[(1S,2S)-2-hydroxycyclohexyl]-4-methyl-3-{[2-(methylamino)quinazolin-5-yl]amino}benzamide] | 27 | 72
23 | Cc1ccc(C(=O)N[C@H]2CCCC[C@@H]2O)cc1NCc1ccc(NC2CCC2)nc1 [Example 130, 3-({[6-(cyclobutylamino)pyridin-3-yl]methyl}amino)-N-[(1S,2S)-2-hydroxycyclohexyl]-4-methylbenzamide] | 80 | 53
24 | Cc1ncc(C(=O)N[C@H]2CCCC[C@@H]2O)cc1/C=C(\F)c1cncc(-c2ccccn2)c1 [Example 180, 5-[(Z)-2-([2,3′-bipyridin]-5′-yl)-2-fluoroethenyl]-N-[(1S,2S)-2-hydroxycyclohexyl]-6-methylpyridine-3-carboxamide] | 16 | 32
25 | Cc1ccc(C(=O)N[C@H]2CCCC[C@@H]2O)cc1/C=C(\F)c1ccc(NCC2CC2)nc1 [Example 183, 3-[(Z)-2-{6-[(cyclopropylmethyl)amino]pyridin-3-yl}-2-fluoroethenyl]-N-[(1S,2S)-2-hydroxycyclohexyl]-4-methylbenzamide] | 30 | 24
26 | Nc1ccc(/C(F)=C/c2cc(C(=O)N[C@H]3CCCC[C@@H]3O)ccc2F)cn1 [Example 191, 3-[(Z)-2-(6-aminopyridin-3-yl)-2-fluoroethenyl]-4-fluoro-N-[(1S,2S)-2-hydroxycyclohexyl]benzamide] | 35 | 29
